Data taken from ChEMBL document CHEMBL1124865, “Synthesis and biological evaluation of a series of parenteral 3'-quaternary ammonium cephalosporins” (J Med Chem, 1990).
Converted amounts (≈) assume the structure as drawn.

Assays:
Assay type in all cases: functional
[1] = test system: Enterobacter cloacae; experiment: Antibacterial activity against Enterobacter cloacae 265A
[2] = test system: Escherichia coli; experiment: Antibacterial activity against Escherichia coli EC14
[3] = test system: Enterobacter cloacae; experiment: Antibacterial activity against Enterobacter cloacae EB5
[4] = test system: Escherichia coli; experiment: Antibacterial activity against Escherichia coli TEM
[5] = test system: Klebsiella pneumoniae; experiment: microbe, parasite or virus in culture
Description: Antibacterial activity against Klebsiella pneumoniae 1082E

[6] = test system: Klebsiella pneumoniae; experiment: Antibacterial activity against Klebsiella pneumoniae X26
[7] = test system: Pseudomonas aeruginosa; experiment: Antibacterial activity against Pseudomonas aeruginosa X528
[8] = test system: Pseudomonas aeruginosa; experiment: Antibacterial activity against Pseudomonas aeruginosa PS18
[9] = test system: Staphylococcus aureus; experiment: Antibacterial activity against penicillin G resistance Staphylococcus aureus
[10] = test system: Staphylococcus aureus; experiment: Antibacterial activity against penicillin G susceptible Staphylococcus aureus
[11] = test system: Streptococcus pneumoniae; experiment: Antibacterial activity against Streptococcus pneumoniae
[12] = test system: Serratia marcescens; experiment: Antibacterial activity against Serratia marcescens SE3
[13] = test system: Streptococcus pyogenes; experiment: Antibacterial activity against Streptococcus pyogenes
[14] = test system: Enterococcus faecium; experiment: Antibacterial activity against Enterococcus faecium; conditions: Enterococcus faecium; read-out: MIC
[15] = test system: Staphylococcus aureus; experiment: In vivo efficacy against Staphylococcus aureus infected mice treated at 1 hr and 5 hr post infection
[16] = test system: Escherichia coli; experiment: In vivo efficacy against Escherichia coli infected mice treated at 1 hr and 5 hr post infection
[17] = test system: Escherichia coli; experiment: In vivo efficacy against Escherichia coli infections in mice
[18] = test system: Staphylococcus aureus; experiment: In vivo efficacy against Staphylococcus aureus infections in mice
[19] = test system: Pseudomonas aeruginosa; experiment: In vivo efficacy against Pseudomonas aeruginosa infected mice treated at 1 hr and 5 hr post infection
[20] = test system: Pseudomonas aeruginosa; experiment: In vivo efficacy against Pseudomonas aeruginosa infections in mice
[21] = Enterobacter cloacae, read-out: MIC
[22] = Escherichia coli, read-out: MIC
[23] = Klebsiella pneumoniae, read-out: MIC
[24] = Pseudomonas aeruginosa, read-out: MIC
[25] = Staphylococcus aureus, read-out: MIC
[26] = Streptococcus pneumoniae, read-out: MIC
[27] = Serratia marcescens, read-out: MIC
[28] = Streptococcus pyogenes, read-out: MIC

SMILES	MIC [1, 21]	MIC [2, 22]	MIC [3, 21]	MIC [4, 22]	MIC [5, 23]	MIC [6, 23]	MIC [7, 24]	MIC [8, 24]	MIC [9, 25]	MIC [10, 25]	MIC [11, 26]	MIC [12, 27]	MIC [13, 28]	MIC [14]	MIC [2]	MIC [3]	MIC [5]	ED50 [15]	ED50 [16]	MIC [9]	other results
CO/N=C(\C(=O)N[C@@H]1C(=O)N2C(C(=O)[O-])=C(C[n+]3csc(CCOC(C)=O)c3C)CS[C@H]12)c1csc(N)n1	2 µg/mL (≈ 3.44 µM)	0.03 µg/mL (≈ 0.0517 µM)	0.125 µg/mL (≈ 0.215 µM)	0.03 µg/mL (≈ 0.0517 µM)	8 µg/mL (≈ 13.8 µM)	0.015 µg/mL (≈ 0.0258 µM)	32 µg/mL (≈ 55.1 µM)	64 µg/mL (≈ 110 µM)	4 µg/mL (≈ 6.89 µM)	2 µg/mL (≈ 3.44 µM)	0.015 µg/mL (≈ 0.0258 µM)	0.125 µg/mL (≈ 0.215 µM)	0.015 µg/mL (≈ 0.0258 µM)	32 µg/mL (≈ 55.1 µM)	–	–	–	–	–	–	–
CO/N=C(\C(=O)N[C@@H]1C(=O)N2C(C(=O)[O-])=C(C[n+]3ccc4scc(C(=O)O)c4c3)CS[C@H]12)c1csc(N)n1	32 µg/mL (≈ 55.7 µM)	0.015 µg/mL (≈ 0.0261 µM)	0.125 µg/mL (≈ 0.218 µM)	0.06 µg/mL (≈ 0.104 µM)	4 µg/mL (≈ 6.96 µM)	0.015 µg/mL (≈ 0.0261 µM)	4 µg/mL (≈ 6.96 µM)	16 µg/mL (≈ 27.8 µM)	16 µg/mL (≈ 27.8 µM)	2 µg/mL (≈ 3.48 µM)	0.015 µg/mL (≈ 0.0261 µM)	0.03 µg/mL (≈ 0.0522 µM)	0.03 µg/mL (≈ 0.0522 µM)	> 128 µg/mL	–	–	–	–	–	–	–
CO/N=C(\C(=O)N[C@@H]1C(=O)N2C(C(=O)[O-])=C(C[n+]3cccc(CC(=O)O)c3)CS[C@H]12)c1csc(N)n1 (stereo in doubt; 17)	–	–	–	–	–	–	–	–	–	–	–	–	–	–	<0.008 µg/mL	0.25 µg/mL (≈ 0.469 µM)	32 µg/mL (≈ 60.1 µM)	6.2 mg/kg	<0.16 mg/kg	16 µg/mL (≈ 30 µM)	MIC [17]: 0.03 µg/mL (≈ 0.0563 µM); MIC [18]: 8 µg/mL (≈ 15 µM); MIC [10]: 8 µg/mL (≈ 15 µM); MIC [11]: 0.03 µg/mL (≈ 0.0563 µM); MIC [12]: 0.06 µg/mL (≈ 0.113 µM); MIC [13]: 0.03 µg/mL (≈ 0.0563 µM)
CO/N=C(\C(=O)N[C@@H]1C(=O)N2C(C(=O)[O-])=C(C[n+]3ccc(CC(=O)NO)cc3)CS[C@H]12)c1csc(N)n1 (stereo in doubt; 10)	–	–	–	–	–	–	–	–	–	–	–	–	–	–	–	–	–	7.2 mg/kg	–	–	MIC [4]: 0.25 µg/mL (≈ 0.457 µM); MIC [6]: 0.03 µg/mL (≈ 0.0548 µM)
CO/N=C(\C(=O)N[C@@H]1C(=O)N2C(C(=O)[O-])=C(C[n+]3ccc(CC(=O)NO)cc3)CS[C@H]12)c1csc(N)n1 (stereo in doubt; 12)	–	–	–	–	–	–	–	–	–	–	–	–	–	–	0.06 µg/mL (≈ 0.11 µM)	4 µg/mL (≈ 7.3 µM)	32 µg/mL (≈ 58.4 µM)	5.3 mg/kg	<0.16 mg/kg	8 µg/mL (≈ 14.6 µM)	MIC [1]: >128 µg/mL; MIC [4]: 0.125 µg/mL (≈ 0.228 µM); MIC [6]: 0.06 µg/mL (≈ 0.11 µM); ED50 [19]: 8.6 mg/kg; MIC [18]: 4 µg/mL (≈ 7.3 µM); MIC [7]: 4 µg/mL (≈ 7.3 µM); MIC [8]: 8 µg/mL (≈ 14.6 µM)
CO/N=C(\C(=O)N[C@@H]1C(=O)N2C(C(=O)[O-])=C(C[n+]3cccc4cc[nH]c43)CS[C@H]12)c1csc(N)n1	32 µg/mL (≈ 62.3 µM)	0.5 µg/mL (≈ 0.974 µM)	2 µg/mL (≈ 3.89 µM)	0.125 µg/mL (≈ 0.243 µM)	64 µg/mL (≈ 125 µM)	0.06 µg/mL (≈ 0.117 µM)	32 µg/mL (≈ 62.3 µM)	64 µg/mL (≈ 125 µM)	8 µg/mL (≈ 15.6 µM)	1 µg/mL (≈ 1.95 µM)	0.015 µg/mL (≈ 0.0292 µM)	0.5 µg/mL (≈ 0.974 µM)	< 0.008 µg/mL	> 128 µg/mL	–	–	–	–	–	–	–
CO/N=C(\C(=O)N[C@@H]1C(=O)N2C(C(=O)[O-])=C(C[n+]3ccc4ccoc4c3)CS[C@H]12)c1csc(N)n1	8 µg/mL (≈ 15.5 µM)	0.015 µg/mL (≈ 0.0292 µM)	0.06 µg/mL (≈ 0.117 µM)	0.015 µg/mL (≈ 0.0292 µM)	4 µg/mL (≈ 7.77 µM)	0.015 µg/mL (≈ 0.0292 µM)	2 µg/mL (≈ 3.89 µM)	8 µg/mL (≈ 15.5 µM)	8 µg/mL (≈ 15.5 µM)	1 µg/mL (≈ 1.94 µM)	0.015 µg/mL (≈ 0.0292 µM)	0.03 µg/mL (≈ 0.0583 µM)	< 0.008 µg/mL	> 128 µg/mL	–	–	–	–	–	–	–
CO/N=C(\C(=O)N[C@@H]1C(=O)N2C(C(=O)[O-])=C(C[n+]3cccc(CC(=O)O)c3)CS[C@H]12)c1csc(N)n1 (stereo in doubt; 24)	–	–	–	–	–	–	–	–	–	–	–	–	–	–	0.125 µg/mL (≈ 0.235 µM)	–	8 µg/mL (≈ 15 µM)	–	0.09 mg/kg	8 µg/mL (≈ 15 µM)	MIC [6]: 0.06 µg/mL (≈ 0.113 µM); ED50 [19]: 17.4 mg/kg; MIC [20]: 16 µg/mL (≈ 30 µM); MIC [7]: 4 µg/mL (≈ 7.51 µM); MIC [12]: 0.5 µg/mL (≈ 0.939 µM)
CO/N=C(\C(=O)N[C@@H]1C(=O)N2C(C(=O)[O-])=C(C[n+]3ccc4c(S(=O)(=O)O)cccc4c3)CS[C@H]12)c1csc(N)n1	64 µg/mL (≈ 106 µM)	0.015 µg/mL (≈ 0.0248 µM)	0.25 µg/mL (≈ 0.413 µM)	0.03 µg/mL (≈ 0.0496 µM)	32 µg/mL (≈ 52.9 µM)	0.03 µg/mL (≈ 0.0496 µM)	32 µg/mL (≈ 52.9 µM)	16 µg/mL (≈ 26.5 µM)	8 µg/mL (≈ 13.2 µM)	4 µg/mL (≈ 6.62 µM)	0.015 µg/mL (≈ 0.0248 µM)	0.25 µg/mL (≈ 0.413 µM)	–	> 128 µg/mL	–	–	–	–	–	–	MIC [13]: 0.015 µg/mL (≈ 0.0248 µM)
CO/N=C(\C(=O)N[C@@H]1C(=O)N2C(C(=O)[O-])=C(C[n+]3ccc(CC(=O)NO)cc3)CS[C@H]12)c1csc(N)n1 (stereo in doubt; 8)	–	–	–	–	–	–	–	–	–	–	–	–	–	–	–	0.5 µg/mL (≈ 0.913 µM)	16 µg/mL (≈ 29.2 µM)	2.5 mg/kg	0.82 mg/kg	–	MIC [4]: 0.06 µg/mL (≈ 0.11 µM); ED50 [19]: >40 mg/kg; MIC [7]: 32 µg/mL (≈ 58.4 µM); MIC [10]: 4 µg/mL (≈ 7.3 µM); MIC [12]: 0.5 µg/mL (≈ 0.913 µM)
